Positions of bridges follow the written chain, without caps; N, C: chain ends. Non-standard residues stand in square brackets, D forms with d. No end group written: not given here. d2Nal = N[C@H](Cc1ccc2ccccc2c1)C(=O)O; Nle = CCCC[C@H](N)C(=O)O; Ahx = NCCCCCC(=O)O; βAla = NCCC(=O)O
How the values were obtained:
[1] = tested on: CCI mice (mouse model of neuropathic pain); assay: Mouse model of neuropathic pain (CCI), von Frey and cold plate tests taken together, intrathecal administration; assay type: in vivo; conditions: for analgesic activity of the reference compounds (mice, first stage): reason why no ED50 was calculated; for analgesic activity in neuropathic pain (mice): CCI mice, von Frey and cold plate tests, FIGS. 1-7 (B, C)
Experimental: (§1) Albino Swiss mice were subjected to a loose unilateral ligation of the right sciatic nerve (a chronic constriction injury, CCI) according to the model developed by Bennett and Xie, Pain 33, 87-107, […]. […] The tests permitted to determine the analgesic efficiency of the novel compounds in the model of neuropathic pain. In the control mice (due to the absence of hypersensitivity, which characterizes neuropathic pain) at the same time points, a test of tail flick was conducted to determine pain threshold in the acute pain after intrathecal administration of the hybrid peptidomimetics.

[2] = tested on: healthy mice (control mice); assay: Tail flick test, acute pain threshold in control mice after intrathecal administration; assay type: in vivo, mouse; conditions: for analgesic activity in control mice: healthy mice, FIGS. 1-7 (A)
Experimental: as §1
(§2) The results were presented for doses in micrograms, at which a half (50%) of the maximum effect (ED50) is reached. Calculation of the ED50 value requires clear dose-dependent effects.

[3] = tested on: CCI rats (rat model of neuropathic pain); assay: Rat model of neuropathic pain (CCI), von Frey and cold plate tests after intrathecal administration; assay type: in vivo; conditions: 0.1 μg/5 μl/rat, FIGS. 10-13 (B, C)
Experimental: Wistar rats were subjected to cannulation for intrathecal administration by a method of Yaksh, T. L., Rudy, T. A., described in Physiol. Behay. 17, 1031-1036, 1976, and seven days after this procedure, a loose unilateral ligation of the right sciatic nerve (a chronic constriction injury, CCI) according to the model developed by Bennett and Xie (1988). After seven days from the CCI procedure, behavioral tests were conducted: the von Frey test and cold plate test to measure hypersensitivity to tactile and thermal stimuli, respectively. Hypersensitivity developed after injury of the nerve to two types of stimuli is a symptom of neuropathy.

[4] = tested on: CCI mice (mouse model of neuropathic pain); assay: Cold plate test (hyperalgesia) in mice with sciatic nerve injury (CCI), intrathecal administration; assay type: in vivo; conditions: mice in the neuropathic pain model, cold plate 2° C., range in brackets
Experimental: as §1, §2

[5] = tested on: CCI mice (mouse model of neuropathic pain); assay: Von Frey test (allodynia) in mice with sciatic nerve injury (CCI), intrathecal administration; assay type: in vivo; conditions: mice in the neuropathic pain model, range in brackets
Experimental: as §1, §2

[6] = tested on: healthy rats (control rats); assay: Acute pain threshold in healthy (control) rats after intrathecal administration; assay type: in vivo; conditions: 0.1 μg/5 μl/rat, FIGS. 10-13 (A)
[7] = tested on: CCI mice (mouse model of neuropathic pain); assay: Mouse model of neuropathic pain (CCI), von Frey and cold plate tests after intravenous administration; assay type: in vivo; conditions: CCI mice, 15, 30 and 120 min, FIGS. 8-9
Experimental: In the second stage of the pharmacological studies, the effect of the peripheral, intravenous administration of the hybrid peptidomimetics according to the invention (UW3, UW5) on the sensitivity to a mechanical stimulus (A) (von Frey test) and thermal stimulus (B) (cold plate test) threshold compared to a control group receiving water for injection was tested on mice in the neuropathy model (FIGS. 8 and 9). The studies were conducted at days 7-14 from the CCI procedure on mice at 15, 30 and 120 min after intravenous administration of the hybrid peptidomimetics UW3 and UW5 in the selected doses.

Substance: Tyr-D-Ala-Gly-Phe-4AMB-Nle-cyclo[Asp-His-D-Nal(2′)-Arg-Trp-Lys]-NH2 [UW6]
- analgesic activity of the reference compounds (mice, first stage) [1]: very weak and dose dependency-deprived analgesic activity

Substance: Tyr-D-Ala-Gly-Phe-NH2 [UW1, reference compound]
- Control mice Tail flick test ED50 ([2]; control mice, dose giving 50% of maximum effect, range in brackets): 0.03 (0.02-0.05) μg
- analgesic activity in control mice [2]: show activity
- analgesic activity in neuropathic pain (mice) [1]: weakened in both or at least one hypersensitivity determining test
- analgesic activity in the rat model of neuropathic pain [3]: weak activity
- Cold plate (hyperalgesia) ED50 [4]: 9.3 (2.7-32)^ μg
- Von Frey test (allodynia) ED50 [5]: 0.16 (0.1-0.25) μg
- analgesic activity in healthy (control) rats [6]: weak activity

Substance: Y[dA]GF[Ahx][Ahx][Nle]DH[d2Nal]RWK-NH2 (lactam 8-13) [UW5]
- analgesic activity in control mice [2]: limited analgesic efficiency
- analgesic activity in neuropathic pain (mice) [1]: higher analgesic efficiency
- analgesic activity in the rat model of neuropathic pain [3]: reaches maximum values
- Cold plate (hyperalgesia) ED50 [4]: 0.2 (0.008-6.5) μg
- Von Frey test (allodynia) ED50 [5]: 0.02 (0.00003-15) μg
- analgesic efficiency after peripheral, intravenous administration [7]: high analgesic efficiency
- analgesic activity in healthy (control) rats [6]: very weak activity

Substance: Y[dA]GF[Ahx][Nle]DH[d2Nal]RWK-NH2 (lactam 7-12) [UW3]
- analgesic activity in control mice [2]: limited analgesic efficiency
- analgesic activity in neuropathic pain (mice) [1]: higher analgesic efficiency
- analgesic activity in the rat model of neuropathic pain [3]: reaches maximum values
- Cold plate (hyperalgesia) ED50 [4]: 0.008 (0.005-0.01) μg
- Von Frey test (allodynia) ED50 [5]: 0.0004 (0.0001-0.002) μg
- analgesic efficiency after peripheral, intravenous administration [7]: high analgesic efficiency
- analgesic activity in healthy (control) rats [6]: very weak activity

Substance: Y[dA]GF[dA][Nle]DH[d2Nal]RWK-NH2 (lactam 7-12) [UW2]
- analgesic activity of the reference compounds (mice, first stage) [1]: very weak and dose dependency-deprived analgesic activity

Substance: Y[dA]GF[βAla][Nle]DH[d2Nal]RWK-NH2 (lactam 7-12) [UW4]
- analgesic activity of the reference compounds (mice, first stage) [1]: very weak and dose dependency-deprived analgesic activity

Source: patent publication US11041010B2, “Hybrid peptidomimetics for use in neuropathic pain” (Uniwersytet Warszawski, priority 2017, dated 2021)
